Results taken from publication PMC9867315, “Enhanced Cytotoxic Activity of PEGylated Curcumin Derivatives: Synthesis, Structure–Activity Evaluation, and Biological Activity” (International Journal of Molecular Sciences, 2023).
Like-named read-outs stand apart in the source and are kept apart here.

Tests used:
SCaBER cells [1] = assay: MTT cytotoxicity assay, SCaBER bladder cancer cells; format: cell-based, human; conditions: hypoxia (1% oxygen)
Description: (§1) For the hypoxia experiments, cells were cultured at 1% O2 (5% CO2/94% N2; 37 °C) using a hypoxia station (Whitley H35 hypoxystation; Don Whitley, Bingley, UK). All media used in these experiments were incubated under hypoxic conditions before being added to the cells.
(§2) Then, DMSO was added to dissolve the formazan crystals.

5637 cells [2] = assay: Proteome Profiler Human Cell Stress Array; format: cell-based; conditions: 5637, hypoxic conditions, 4 µM, 18 h, compared to control cells
Description: The 5637 cells were seeded in a Petri dish (Ø 35 mm) at a density of 0.4 × 10^6 cells/dish and incubated overnight. Cells were treated with compound 5 at a concentration of 4 µM (hypoxia) and 8 µM (normoxia) for 18 h. […] After incubation, cells were lysed in a lysis buffer containing pepstatin A, leupeptin, and aprotinin (each at a concentration of 10 µg/mL). Total protein was determined using a Pierce BCA protein assay Kit and stored at −80 °C until future use. A total of 300 µg of protein was then incubated with a human Proteome Profiler Human Cell Stress Array (Bio-Techne, Minneapolis, MN, USA) according to the manufacturer’s instructions. The membranes were visualized using the I-Bright Imaging System (Thermofisher Scientific, Waltham, MA, USA). The spot densitometric analysis was performed using Image Studio Lite (version 5.2) software (LI-COR Biosciences, Lincoln, NE, USA).

5637 cells [3] = assay: Cell cycle distribution, propidium iodide flow cytometry; format: cell-based, human; conditions: for G2/M cell population: 5637, 6 µM, 24 h
Description: The 5637 cells (0.4 × 10^6 cells/well) were seeded in 6-well plates and incubated overnight under standard cell culture conditions or in a hypoxia workstation. Then, the tested compound was added at a concentration of 4 µM, 5 µM, and 6 µM (for hypoxic conditions), and 6 µM, 8 µM, and 10 µM (for normoxic conditions), and incubated for 24 h. […] After incubation, cells were washed twice with PBS, trypsinized, and washed again with PBS. Cells were fixed with 70% ethanol at 4 °C. After fixation, the cells were washed twice with PBS and treated with RNAse (100 µg/mL) and PI (50 µg/mL) for 30 min at 37 °C in the dark. The samples were analyzed using BD FACSLyric™ (Becton Dickinson, Franklin Lakes, NJ, USA). Finally, cell cycle distribution was analyzed using flow cytometry. The percentages of cells in the G1, S, and G2/M phases were calculated using FlowJo software version 10.8.1 (Becton Dickinson, Ashland, OR, USA).

5637 cells [4] = assay: MTT cytotoxicity assay, 5637 bladder cancer cells; format: cell-based, human
Description: as §1, §2

SCaBER cells [5] = assay: MTT cytotoxicity assay, SCaBER bladder cancer cells; format: cell-based, human; conditions: normoxia
[6] = MTT cytotoxicity assay, MRC-5 normal lung fibroblasts; conditions: human, MRC-5 normal lung fibroblasts
Description: (§3) Human urinary grade II carcinoma cell line (5637) and human urinary squamous cell carcinoma (SCaBER) were purchased from ATCC (Manassas, VA, USA). The MRC-5 cell line (normal human lung fibroblasts) was purchased from the European Collection of Authenticated Cell Cultures (ECACC) distributed by Sigma-Aldrich. The 5637 cells were grown in RPMI, SCaBER cells were cultured in EMEM, and MRC-5 in DMEM. All media were supplemented with 10% (v/v) FBS, 2 mM L-glutamine, 100 U/mL penicillin, and 10 mg/mL streptomycin in a humidified atmosphere of 5% CO2 at 37 °C.
(§4) 5637 and SCaBER cells were seeded at 15 × 10^3 cells/well, while MRC-5 was at a density of 20 × 10^3 cells/well and incubated overnight. In the case of the hypoxia experiments, cells were transferred to a hypoxia chamber and incubated for 24 h. […] The cytotoxic activity of tested compounds was measured after 24 h and 48 h using the MTT assay. After incubation lasting 24 h and 48 h, the cells were washed twice with PBS, and 170 µL of MTT (final concentration of 0.59 mg/mL in cell culture medium) was added to each well. Cells were incubated for 1.5 h under standard cell culture conditions. Then, DMSO was added to dissolve the formazan crystals. The absorbance was measured at a wavelength of 570 nm with a plate reader (Biotek Instruments, Elx-800, Winooski, VT, USA). Cell viability was calculated as a percentage of the control. All experiments were repeated at least two times (two independent experiments performed in hexaplicate). The IC50 values were determined using GraphPad 8.0 software (GraphPad Software, Inc., La Jolla, CA, USA).

MRC-5 cells [7] = assay: as above
Description: as §3, §4

[8] = system: human peripheral blood mononuclear cell (PBMC); parameters: method as in ref 38 (Deters et al.); conditions: ref 38 (Deters et al.); cited from earlier work
MRC-5 cells [9] = conditions: 10 µM
Description: as §3, §4

[10] = parameters: method as in ref 41 (Wang et al.); conditions: ref 41 (Wang et al.), cited from earlier work
T24 cell line = system: T24 cell line; parameters: method as in ref 53 (Park et al.); conditions: T24 cells, 12.5 µM; ref 53 (Park et al.); cited from earlier work
[11] = Homo sapiens, 24 h, 24 h incubation
[12] = Homo sapiens, 48 h, 48 h incubation
[13] = 5637, 24 h, hypoxic conditions, vs control
[14] = Homo sapiens, 24 h, 5637, hypoxia (1% oxygen), 24 h incubation, MTT, read-out: IC50
[15] = Homo sapiens, 24 h, 5637, normoxia, 24 h incubation, MTT, read-out: IC50
[16] = Homo sapiens, 48 h, 5637, hypoxia (1% oxygen), 48 h incubation, MTT, read-out: IC50
[17] = Homo sapiens, 48 h, 5637, normoxia, 48 h incubation, MTT, read-out: IC50
[18] = 5637, hypoxia (1% oxygen), 24 h incubation, MTT, read-out: IC50
[19] = 5637, hypoxia (1% oxygen), 48 h incubation, MTT, read-out: IC50
[20] = 5637, normoxia, 24 h incubation, MTT, read-out: IC50
[21] = 5637, normoxia, 48 h incubation, MTT, read-out: IC50
[22] = MRC-5, normoxia, 24 h incubation, MTT
[23] = MRC-5, normoxia, 48 h incubation, MTT

Compound	IC50 (SCaBER cells [1]; 24 h incubation) [µM]	IC50 (SCaBER cells [1]; 48 h incubation) [µM]	IC50 (5637 cells [4]; [18]) [µM]	IC50 (5637 cells [4]; [19]) [µM]	IC50 (5637 cells [4]; [20]) [µM]	IC50 (5637 cells [4]; [21]) [µM]	IC50 (SCaBER cells [5]; 24 h incubation) [µM]	IC50 (SCaBER cells [5]; 48 h incubation) [µM]	IC50 (MRC-5 cells [7]; [22]) [µM]	IC50 (MRC-5 cells [7]; [23]) [µM]	also measured
COCCOCCOCCOc1ccc(/C=C/C(=O)/C=C(O)/C=C/c2ccc(OCCOCCOCCOC)c(OC)c2)cc1OC [Compound 5, (1E,4Z,6E)-5-hydroxy-1,7-bis(3-methoxy-4-{2-[2-(2-methoxyethoxy)ethoxy]ethoxy}phenyl)-hepta-1,4,6-trien-3-one]	–	–	–	–	–	–	–	–	–	–	IC50 (SCaBER cells [1]; [11]): 7.27 ± 0.2 µM; IC50 (SCaBER cells [1]; [12]): 7.58 ± 0.91 µM; expression of HIF-1α, HIF-2α, ADAMTS-1, phospho-JNK, p21, and phospho-HSP27 (5637 cells [2]): increased; G2/M cell population (5637 cells [3]; hypoxia): 38%; G2/M cell population (5637 cells [3]; normoxia): 24%; number of cells in the G0/G1 phase (5637 cells [3]; [13]): significantly decreased; number of cells in the S phase (5637 cells [3]; [13]): slightly increased; IC50 (5637 cells [4]; [14]): 6.43 ± 0.26 µM; IC50 (5637 cells [4]; [15]): 8.4 ± 0.21 µM; IC50 (5637 cells [4]; Homo sapiens, 24 h, 5637, panel A (normoxia, 5-10 µM), 24 h, read-out: IC50 (narrow concentration range)): 7.89 ± 0.47 µM; IC50 (5637 cells [4]; Homo sapiens, 24 h, 5637, panel B (hypoxia 1% oxygen, 3-8 µM), 24 h, read-out: IC50 (narrow concentration range)): 5.29 ± 0.02 µM; IC50 (5637 cells [4]; [16]): 5.02 ± 1.06 µM; IC50 (5637 cells [4]; [17]): 7.91 ± 0.46 µM; IC50 (5637 cells [4]; Homo sapiens, 48 h, 5637, panel A (normoxia, 5-10 µM), 48 h, read-out: IC50 (narrow concentration range)): 7.82 ± 1 µM; IC50 (5637 cells [4]; Homo sapiens, 48 h, 5637, panel B (hypoxia 1% oxygen, 3-8 µM), 48 h, read-out: IC50 (narrow concentration range)): 5.29 ± 0.16 µM; IC50 (SCaBER cells [5]; [11]): 8.53 ± 0.16 µM; IC50 (SCaBER cells [5]; [12]): 7.97 ± 0.4 µM; viability at 10 µM [6]: ~100%; IC50 (MRC-5 cells [7]; Homo sapiens, MRC5, 24 h): > 10 µM; IC50 (MRC-5 cells [7]; Homo sapiens, MRC5, 48 h): > 10 µM
COCCOCCOCCOc1cc(/C=C/C(=O)/C=C(O)/C=C/c2ccc(OC)c(OCCOCCOCCOC)c2)ccc1OC [Compound 7, (1E,4Z,6E)-5-hydroxy-1,7-bis(4-methoxy-3-{2-[2-(2-methoxyethoxy)ethoxy]ethoxy}phenyl)-hepta-1,4,6-trien-3-one]	–	–	–	–	–	–	–	–	–	–	viability at 10 µM (5637 cells [4]; Homo sapiens, 5637, 10 µM, 24 h incubation, preliminary screen, read-out: cell viability): > 60%
COc1ccc(/C=C/C(=O)/C=C(O)/C=C/c2ccc(OC)c(O)c2)cc1O [Isocurcumin (13), (1E,4Z,6E)-5-hydroxy-1,7-bis(4-methoxy-3-hydroxyphenyl)-hepta-1,4,6-trien-3-one]	–	–	–	–	–	–	–	–	–	–	IC50 [8]: 2.8 µM; IC50 (SCaBER cells [1]; [11]): 14.2 ± 0.23 µM; IC50 (SCaBER cells [1]; [12]): 11.94 ± 0.09 µM; IC50 (5637 cells [4]; [14]): 13.1 ± 2.89 µM; IC50 (5637 cells [4]; [15]): 10.8 ± 3.46 µM; IC50 (5637 cells [4]; [16]): 10.1 ± 3.12 µM; IC50 (5637 cells [4]; [17]): 6.71 ± 1.7 µM; IC50 (SCaBER cells [5]; [11]): 14.7 ± 0.88 µM; IC50 (SCaBER cells [5]; [12]): 14.3 ± 0.41 µM; IC50 (MRC-5 cells [7]; Homo sapiens, MRC5, 24 h): > 20 µM; IC50 (MRC-5 cells [7]; Homo sapiens, MRC5, 48 h): > 20 µM
(1E,3Z,6E)-1,7-bis(3-methoxy-4-hydroxyphenyl)-5-oxohepta-1,3,6-trien-3-yl difluoroborinate [Compound 10]	2.35 ± 0.22	2.6 ± 0.03	1.96 ± 0.47	2.12 ± 0.33	2.25 ± 0.08	2.17 ± 0.24	2.59 ± 0.16	2.71 ± 0.34	> 10	7.84 ± 0.15	–
(1E,3Z,6E)-1,7-bis(3-methoxy-4-{2-[2-(2-methoxyethoxy)ethoxy]ethoxy}phenyl)-5-oxohepta-1,3,6-trien-3-yl difluoroborinate [Compound 4]	2.42 ± 0.23	2.86 ± 0.62	2.58 ± 0.11	2.96 ± 0.23	3.31 ± 0.34	3.27 ± 0.45	4.18 ± 1.3	4.57 ± 2.07	> 10	> 10	cell viability (MRC-5 cells [9]): 66%
(1E,3Z,6E)-1,7-bis(4-methoxy-3-hydroxyphenyl)-5-oxohepta-1,3,6-trien-3-yl difluoroborinate [Compound 12]	3.26 ± 1.05	4.25 ± 1.94	2.32 ± 0.29	2.64 ± 0.54	2.48 ± 0.55	2.4 ± 0.45	2.28 ± 0.13	2.21 ± 0.17	9.63 ± 2.61	5.8 ± 0.77	–
(1E,3Z,6E)-1,7-bis(4-methoxy-3-{2-[2-(2-methoxyethoxy)ethoxy]ethoxy}phenyl)-5-oxohepta-1,3,6-trien-3-yl difluoroborinate [Compound 6]	5.85 ± 1.98	7.28 ± 1.81	2.37 ± 0.19	2.66 ± 0.07	2.6 ± 0.99	2.63 ± 0.77	4.11 ± 1.4	4.35 ± 1.97	> 10	9.34 ± 0.76	–
(1E,4Z,6E)-5-hydroxy-1,7-bis (3-methoxy-4-hydroxyphenyl)-hepta-1,4,6-trien-3-one [Curcumin (11), reference compound]	11.6 ± 0.83	11.3 ± 0.19	12.1 ± 0.16	13.3 ± 0.54	12.7 ± 3.03	12.9 ± 2.35	13.1 ± 0.68	12.6 ± 0.62	70.4 ± 12.5	45.3 ± 3.18	IC50 [8]: 2.8 µM; curcumin decomposed ([10]; cell culture medium in the presence of FCS, within 1 h): less than 20%; curcumin decomposed ([10]; cell culture medium in the presence of FCS, within 8 h): < 50%; curcumin decomposed ([10]; serum-free medium, within 30 min): about 90%; cell population in G2/M (T24 cell line): 64%
